Biological target: T1, HSD17B4 (Homo sapiens, UniProt P51659)
T1 construct: endogenous in cells; host or cells: HEK293T
T1 sequence (P51659 1-736): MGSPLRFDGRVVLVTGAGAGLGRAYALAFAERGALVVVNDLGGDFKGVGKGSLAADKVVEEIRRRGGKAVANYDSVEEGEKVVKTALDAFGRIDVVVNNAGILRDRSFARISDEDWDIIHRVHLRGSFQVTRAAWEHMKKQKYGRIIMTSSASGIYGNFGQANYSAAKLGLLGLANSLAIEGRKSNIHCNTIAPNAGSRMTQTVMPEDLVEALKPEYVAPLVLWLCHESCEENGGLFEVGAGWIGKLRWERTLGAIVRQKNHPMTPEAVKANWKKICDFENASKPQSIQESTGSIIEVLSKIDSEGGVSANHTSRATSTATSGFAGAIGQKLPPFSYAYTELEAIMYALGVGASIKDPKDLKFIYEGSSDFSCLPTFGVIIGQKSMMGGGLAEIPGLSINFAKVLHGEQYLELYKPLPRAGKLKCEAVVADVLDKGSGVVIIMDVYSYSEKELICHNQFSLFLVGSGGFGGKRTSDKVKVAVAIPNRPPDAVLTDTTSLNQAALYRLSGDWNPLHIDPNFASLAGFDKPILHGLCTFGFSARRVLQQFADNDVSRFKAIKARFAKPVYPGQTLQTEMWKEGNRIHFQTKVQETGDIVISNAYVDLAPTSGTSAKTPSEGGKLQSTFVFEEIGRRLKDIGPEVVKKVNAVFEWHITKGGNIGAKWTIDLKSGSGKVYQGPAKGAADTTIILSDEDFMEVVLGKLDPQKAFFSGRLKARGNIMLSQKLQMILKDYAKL
Assay: Binary MASPIT assay
Type: cell-based
Details: HEK293T cells, 100 ng/ml leptin, 24 hours; FIG. 4
Procedure: The binding of HSD17B4 to tamoxifen was further confirmed using the MASPIT technology. The binary MASPIT assay was essentially performed as described before (Risseeuw et al., 2013). Briefly, HEK293T cells were seeded in black tissue-culture treated 96-well plates at 10.000 cells/well in 100 μl culture medium (DMEM supplemented with 10% fetal calf serum), and grown at 37° C., 8% CO2. Twenty-four hours later cells were transfected with a combination of the pCLG-eDHFR plasmid (Risseeuw et al., 2013), the pMG1-HSD17B4 construct and the pXP2d2-rPAP1-luciferase reporter (Caligiuri et al., 2006). The pMG1-HSD17B4 construct was generated by Gateway transfer of the full size HSD17B4 ORF, obtained as an entry clone in the hORFeome collection, into the Gateway compatible pMG1 prey destination vector as described earlier (Lievens et al., 2009). Twenty-four hours after transfection, cells were either left unstimulated or treated with 100 ng/ml leptin, with or without addition of MTX-PEG6-tamoxifen. Another 24 hours later, luciferase activity was assayed using the Luciferase Assay System kit (Promega).

CCC(=C(c1ccccc1)c1ccc(OCCN(C)Cc2cn(CCOCCOCCOCCOCCOCCNC(=O)CCC(NC(=O)c3ccc(N(C)Cc4cnc5nc(N)nc(N)c5n4)cc3)C(=O)O)nn2)cc1)c1ccccc1 (stereo not shown) [MTX-PEG6-tamoxifen]
luciferase activity (MASPIT signal): increased luciferase activity in a dose-dependent manner

Source: patent US11231416B2, “Virus-like particle (VLP) based small molecule-protein interaction trap” (VIB VZW, priority 2015, dated 2022)
